Experimental data from patent US6423737B1, “Benzamidoxime prodrugs as antipneumocystic agents” (The University of North Carolina at Chapel Hill, priority 1995, dated 2002).

Columns and labels:
BRL 3A hepatocytes = assay: Metabolism in intact cultured cells (HPLC of culture supernatants); type: in vitro ADME; details: 10 μM substrate, 24 hours, 37EC; extracellular medium assayed; FIG. 4
Protocol: Metabolic experiments with intact cultured cells were performed using the BRL 3A hepatocyte line, obtained from the UNC-Chapel Hill Lineberger Tissue Culture Facility. Cells were routinely cultured in Costar (Cambridge, Mass.) 25 cm^2 of tissue culture flasks at 37EC under moist 5% CO2 and 95% air in Ham's F-12 medium (Gibco, Gaithersburg, Md.) containing 5% fetal bovine serum (HyClone Laboratories Inc., Logan, Utah). Confluent cultures were treated with 0.25% trypsin solution (Sigma Chemical Co., ST. Louis Mo.), then approximately 2×10^5 cells/well subcultured into Costar 6-well tissue culture chambers and the cells allowed to grow to confluency. Ten mL fresh medium was added to each culture well and incubations were started by adding 100 μL amidoxime solution (prepared in sterile water) to a final concentration of 10 μM. Cell cultures were incubated at 37EC under moist 5% CO2 and 95% air for 24 hours, then aliquots of culture supernatants extracted and assayed for metabolites as described below. Similar metabolic experiments were performed with cultured J774 A.1 mouse monocyte-macrophage cells cultured in DMEM F-12 medium containing 10% fetal bovine serum and H9c2 rat heart myoblast cells cultured in DMEM H medium containing 10% fetal bovine serum.
(§1) Samples were extracted using solid phase extraction and assayed using high performance liquid chromatography (HPLC) by methods similar to those previously described in Berger et al. (1992) and Berger et al., (1991), supra. Briefly, samples spiked with 2,5-bis[4-(N-isopropylamidino)phenyl]furan dihydrochloride as the internal standard (IS) were extracted over activated C18 Bond Elut cartridges (Varian Associates, Sunnydale, Calif.), washed with water, 100% acetonitrile, then eluted with 75% acetonitrile/25% water containing 15 mm triethylamine and 35 mM acetic acid. The diamidoxime substrates elute in the 100% acetonitrile phase, while mono-amidine and diamidine products elute in the acetonitrile/water mixture containing triethylamine and acetic acid. Elutes were evaporated to dryness at 40EC under a gentle stream of nitrogen and resuspended in HPLC grade water.
Compounds were resolved using a Hewlett-Packard (Avondale, Pa.) model 1090 HPLC equipped with a HP 1050 variable wavelength detector set at 265 nm, a 4.6×250 mm Zorbax RX diisopropyl C8 column (Mac-Mod, Chadd's Ford, PA) maintained at 40EC and a Vectra 486/66U computer with HP Chemstations software. […] Quantities of metabolites formed were calculated, using peak area rations of authentic standard, from standard addition curves generated by spiking standards into tissue homogenates or tissue culture medium.

Pneumocystis carinii [1] = assay: Anti-P. carinii activity in immunosuppressed rat model (lung cyst counts); type: in vivo, Sprague-Dawley rats; details: for anti-P. carinii activity / mean cyst counts when given intravenously (in words): Formula I amidoximes, intravenous; for % saline, ORAL DOSING / % saline, IV DOSING: Table 2; for % saline, ORAL DOSING: oral by gavage daily for 14 days @33 μmol/kg body weight; for % saline, IV DOSING: tail vein injection daily for 14 days at 22 mg/kg body weight; for anti-P. carinii activity when given orally (in words): Formula I series, orally by gavage once daily for 14 days
Protocol: The activity of the compounds of Formula I against P. carinii was carried out according to an established method. See Tidwell, R. R., et al., J. Protozool. […] Agents Chemother. […] Agents Chemother. […] Briefly, male Sprague-Dawley rats (barrier raised, not certified virus-free) weighing 150-200 g each, were obtained (Hilltop Laboratories, Scottsdale, Pa.). Immediately upon arrival, the animals were caged individually and begun on a low protein (8%) diet and on drinking water containing tetracycline (0.5 mg/mL) and dexamethasone (1.0 μ/mL). This regimen was continued for eight weeks. At the beginning of the seventh week, animals were divided into groups of 8 or more, and the test compounds were administered for 14 days. Saline and pentamidine-treated groups were included as controls.
Animals were sacrificed at the end of the eighth week by chloroform inhalation. The left lung was weighed, ground through a No. 60 wire mesh screen, and suspended 1:10 (wt/vol) in 10 mM β-mercaptoethanol-Hanks' balanced salts solution (HBSS) without cations. Slides were prepared by spotting 5 μL of lung homogenate diluted 1:10 in HBSS with β-mercaptoethanol and allowed to air dry. The slides were stained with cresyl violet, and the cysts were counted by a blinded protocol. The number of cysts per gram of original lung tissue was calculated, and the groups were reported as the percentages of saline-treated controls.
The anti-P. carinii value for each compound is expressed as the percent of cysts in the treatment group as compared to the saline control group. Values are also compared to a positive control group consisting of animals treated intravenously with pentamidine.

[2] = In vitro metabolism by rat tissue homogenate 9000×g supernatants (HPLC); type: in vitro ADME; details: for metabolism by rat liver homogenate 9000×g supernatants: 167 μM substrate plus cofactor solution, 37EC, 10 minutes, FIG. 1
Protocol: In vitro metabolism of diamidoximes 1, 3, 5, and 7 by rat liver homogenate 9000×g supernatants, post-mitochondrial 105,000×g supernatants or microsomal fractions were performed as previously described in B. J. Berger et al., Antimicrob. Agents and Chemotherapy 36, 1825-1831 (1992); B. J. Berger et al., J. Pharmacol. Experimental Therapeutics 256, 883-89 (1991). Briefly, adult male Sprague-Dawley rats, barrier raised, (Hilltop Laboratories, Scottsdale, Pa.) animals were given water and rat chow (Agway, Syracuse, N.Y.) ad libitum. The rats were euthanized by decapitation, the livers removed immediately, rinsed with 50 mM potassium phosphate buffer, pH 7.4, and placed on ice. All subsequent steps were performed at 4EC. The livers were minced, homogenized, and 9000×g supernatants, 105,000×g or 105,000×g microsomal pellets prepared. Each fraction was assayed for protein content as described in M. M. Bradford, Anal. Biochem. 72, 248-254 (1976) and stored at −80EC. Fractions from the rat kidneys, lungs, hearts and brains were prepared similarly.
Reaction mixtures consisted of 1.5 mL 50 mM potassium phosphate buffer, pH 7.4, 0.5 mL cofactor solution (2 mg/mL NADPH, 1.6 mg/mL MgCl2, 1.04 mg/mL glucose-6-phosphate and 2 units/mL glucose-6-phosphate dehydrogenase in 50 mM potassium phosphate buffer pH 7.4), 0.5 mL tissue homogenate and 0.5 mL of the appropriate diamidoxime substrate at a concentration of 167 μM. Reactions were started by adding substrate, then mixtures were incubated at 37EC in a shaking water bath for times shown in the figures. Reactions were terminated by extracting over C18 cartridges and assaying as described below.
as §1
Compounds were resolved using a Hewlett-Packard (Avondale, Pa.) model 1090 HPLC equipped with a HP 1050 variable wavelength detector set at 265 nm, a 4.6×250 mm Zorbax RX diisopropyl C8 column (Mac-Mod, Chadd's Ford, PA) maintained at 40EC and a Vectra 486/66U computer with HP Chemstations software. The mobile phase consisted of 15 mM triethylamine and 35 mM acetic acid in HPLC grade water for pump A, and 15 mM triethylamine and 35 mM acetic acid in 75% acetonitrile in water for pump B. The solvent flow rate was 1.5 mL/min, and the solvent gradient ran from 0% B to 25% B at 22 min, to 40% B at 25 min, then 90% B at 35 min. All solvents and reagents used for the assays were HPLC grade. Quantities of metabolites formed were calculated, using peak area rations of authentic standard, from standard addition curves generated by spiking standards into tissue homogenates or tissue culture medium.

[3] = Acute toxicity of single doses in normal rats; type: in vivo; details: for time after injection to recovery: single IV 80 μmol/kg; for overt toxic responses after single oral doses: single oral doses as high as 160 μmol/kg; for overt acute adverse reactions following single intravenous injections, compared to the bis-benzamidines: single tail vein injection; for time after injection to recovery / persistence of symptoms: single IV 160 μmol/kg
Pneumocystis carinii [4] = details: immunosuppressed rat model, D. W. Boykin et al., J. Med. Chem. 38, 912 (1995); cited from earlier work
[5] = Subjective scale of toxicity and tolerance during treatment in the immunosuppressed rat model; details: subjective scale
From the text: ^b subjective scale of toxicity. […] In general, the larger the value the more severe the toxicity, with values greater than 2 indicating the death of some animals

Compound | metabolism in intact BRL 3A hepatocytes (BRL 3A hepatocytes) | anti-P. carinii activity / mean cyst counts when given intravenously (in words) (Pneumocystis carinii [1]) | % saline, ORAL DOSING (Pneumocystis carinii [1]) | % saline, IV DOSING (Pneumocystis carinii [1]) | metabolism by rat liver homogenate 9000×g supernatants [2] | observed acute toxicity after single intravenous injection ([3]; normal rats, 80 μmol/kg) | time after injection to recovery ([3]; normal rats) | overt toxic responses after single oral doses ([3]; normal rats) | overt acute adverse reactions following single intravenous injections, compared to the bis-benzamidines ([3]; normal rats) | anti-P. carinii activity when given orally (in words) (Pneumocystis carinii [1]) | observed acute toxicity after single intravenous injection ([3]; normal rats, 160 μmol/kg) | time after injection to recovery / persistence of symptoms ([3]; normal rats) | further results
NC(=NO)c1ccc(OCCCCCOc2ccc(C(N)=NO)cc2)cc1.O=C(O)/C=C\C(=O)O.O=C(O)/C=C\C(=O)O [Compound 1, 1,5-bis(4′-(N-hydroxyamidino)phenoxy)pentanedi-hemimaleinate] | metabolized predominantly to the corresponding diamidine | significantly reduced compared to saline controls | 19.27 % saline | 0.15 % saline | forming large quantities of the monoamidine-monoamidoxime derivative, and smaller amounts of pentamidine | Minor toxic responses, including barely observable hindleg ataxia and slight hypoactivity | 5 min | No overt toxic responses | greatly reduced |  |  |  | metabolism by 9000×g supernatants of homogenates of rat liver, kidney, lung and heart ([2]; FIG. 3A-3D): into its amidine analog pentamidine; observed acute toxicity after single intravenous injection ([3]; normal rats, bolus injections above 120 μmol/kg): severe dyspnea and profound hypoactivity; observed acute toxicity after single intravenous injection ([3]; normal rats, from 20 to 60 μmol/kg): no observable adverse reactions
COc1cc(C(N)=NO)ccc1OCCCOc1ccc(C(N)=NO)cc1OC.O=C(O)/C=C\C(=O)O.O=C(O)/C=C\C(=O)O [Compound 7, 1,3-bis(2′-methoxy-4′-(N-hydroxyamidino)phenoxy)propanedi-hemimaleinate] | metabolized predominantly to the corresponding diamidine | significantly reduced compared to saline controls | 3.71 % saline | 0.03 % saline | metabolized similarly | only very minor hypoactivity and dyspnea | 5 min | No overt toxic responses | greatly reduced | most active | pronounced hypoactivity, dyspnea, cyanosis, and increased salivation and lacrimation | approximately 10 minutes | observed acute toxicity after single intravenous injection ([3]; normal rats, 20 or 40 μg/kg): no observable adverse effects
NC(=NO)c1ccc(OCCCOc2ccc(C(N)=NO)cc2)cc1.O=C(O)/C=C\C(=O)O.O=C(O)/C=C\C(=O)O [Compound 5, 1,3-bis(4′-(4-hydroxyamidino)phenoxy)propanedi-hemimaleinate] | metabolized predominantly to the corresponding diamidine | significantly reduced compared to saline controls | 2.25 % saline | 0.03 % saline | metabolized similarly |  |  | No overt toxic responses | greatly reduced | most active | only minor ataxia and/or hypoactivity | 5 min | observed acute toxicity after single intravenous injection ([3]; normal rats, 20, 40 or 80 μmol/kg): no overt toxicity
N=C(N)c1ccc(-c2ccc(-c3ccc(C(=N)N)cc3)o2)cc1 [Compound 9, 2,5-bis-[4-amidinophenyl]furan, reference compound] |  |  |  |  |  |  |  |  |  |  |  |  | activity and toxicity compared with pentamidine on intravenous dosage (Pneumocystis carinii [4]): more active and less toxic than pentamidine; activity on oral administration, furan series (in words) (Pneumocystis carinii [1]; immunosuppressed rat model, orally by gavage): significantly less; Toxicity, IV DOSING ([5]; 0.03 μmol/kg/day): 0; Toxicity, IV DOSING ([5]; 0.3 μmol/kg/day): 0; Toxicity, IV DOSING ([5]; 2.7 μmol/kg/day): 0; Toxicity, IV DOSING ([5]; 13.3 μmol/kg/day): 0; Toxicity, IV DOSING ([5]; 26.6 μmol/kg/day): +1; Toxicity, ORAL DOSING ([5]; 39.8 μmol/kg/day): 0; Toxicity, ORAL DOSING ([5]; 66.3 μmol/kg/day, larger = more severe): 0
